Reference: ChEMBL document CHEMBL4049397, “Design, synthesis and evaluation of derivatives based on pyrimidine scaffold as potent Pan-Raf inhibitors to overcome resistance” (Eur J Med Chem, 2017)

Assay: in vitro
Details: human, liver microsomes

Compound: CNC(=O)c1cc(Oc2ccc(NC(=O)Nc3ccc(Cl)c(C(F)(F)F)c3)cc2)ccn1 [SORAFENIB]
- half-life at 0.5 µM: 5.6 h
